The data set relates to B16/F1 murine melanoma. The format is in vivo, C57BL mice. The protocol: To the nape of the neck of 12 female C57BL mice, each weighing 18˜23 g, B16/F1 murine melanoma cells were injected at a density of 10^6 cells/mL. Two weeks later, the tumor was developed to a size of 0.5˜1 g. The ^177Lu-DOTA-Gly-Cyclic(Dap-Gln-His-dPhe-Arg-Trp-Asp)-Lys-Pro-Val-CONH2 prepared in Example 13 was injected to the mice at a dose of 5 μCi (1.6 μg in 100 μl of saline). 2, 4 and 24 hours later, the mice were sacrificed before organ excision.
For comparison for target selectivity, the mice that were injected with 2 μg of an unlabeled peptide 2 hours after the first injection and then with the radiolabeled peptide were used as a control.
The excised organs were analyzed for radioactivity using a gamma counter (1470 WIZARD Automatic Gamma Counter, PerkinElmer) and the results are plotted in FIG. 7.

The source of these data is patent US8124054B2, “Chelating agent conjugated α-MSH peptide derivatives, preparation method thereof and composition for diagnosis and treatment of melanoma comprising the same as an active ingredient” (Korea Atomic Energy Research Institute, priority 2008, dated 2012).

For the substance “^177Lu-labeled DOTA-Gly-cyclic(Dap-Glu-His-dPhe-Arg-Trp-Asp)-Lys-Pro-Val-CONH2 [Example 13]”, the receptor selectivity entry (concluded from tumor uptake with and without unlabeled peptide) is given as “high receptor selectivity”. The “tumor uptake in control injected with 2 μg of unlabeled peptide, compared with experimental groups” value (mouse, in vivo) was “lower tumor uptake”.
